Reference: ChEMBL document CHEMBL3352037, “Antifungal terpenoids from Hyalis argentea var. latisquama” (2014)
Converted amounts (≈) assume the structure as drawn. Blank lines part the entries; values can stand above or below the molecule they belong to. The source made the active and inactive calls. The calls are words filed in the database; no cut-off is given here.

Assays:
Candida albicans [1] = assay: Antifungal activity against Candida albicans ATCC 10231 assessed as microbial growth inhibition at 125 ug/mL after 48 hrs broth microdilution method; format: functional; conditions: ATCC 10231, 48 h, read-out: GI
Cryptococcus neoformans [2] = assay: Antifungal activity against Cryptococcus neoformans ATCC 32264 by bioautography TLC plate assay based MTT method; format: functional, organism-based
Candida albicans [3] = assay: Antifungal activity against Candida albicans ATCC 10231 assessed as microbial growth inhibition at 62.5 ug/mL after 48 hrs broth microdilution method; format: functional; conditions: ATCC 10231, 48 h, read-out: GI
Cryptococcus neoformans [4] = assay: Antifungal activity against Cryptococcus neoformans ATCC 32264 assessed as microbial growth inhibition at 62.5 ug/mL after 48 hrs broth microdilution method; format: functional; conditions: ATCC 32264, 48 h, read-out: GI
Cryptococcus neoformans [5] = assay: Antifungal activity against Cryptococcus neoformans ATCC 32264 assessed as microbial growth inhibition at 15.6 ug/mL after 48 hrs broth microdilution method; format: functional; conditions: ATCC 32264, 48 h, read-out: GI
Candida albicans [6] = assay: Antifungal activity against Candida albicans ATCC 10231 by bioautography TLC plate assay based MTT method; format: functional, organism-based
Cryptococcus neoformans [7] = assay: Antifungal activity against Cryptococcus neoformans ATCC 32264 assessed as microbial growth inhibition at 31.25 ug/mL after 48 hrs broth microdilution method; format: functional; conditions: ATCC 32264, 48 h, read-out: GI
Candida albicans [8] = assay: Antifungal activity against Candida albicans ATCC 10231 assessed as microbial growth inhibition at 15.6 ug/mL after 48 hrs broth microdilution method; format: functional; conditions: ATCC 10231, 48 h, read-out: GI
Candida albicans [9] = assay: Antifungal activity against Candida albicans ATCC 10231 assessed as microbial growth inhibition after 48 hrs broth microdilution method; format: functional, organism-based
Cryptococcus neoformans [10] = assay: Antifungal activity against Cryptococcus neoformans ATCC 32264 assessed as microbial growth inhibition after 48 hrs broth microdilution method; format: functional
Cryptococcus neoformans [11] = assay: Antifungal activity against Cryptococcus neoformans ATCC 32264 assessed as microbial growth inhibition at 50 to 300 ug/mL after 48 hrs broth microdilution method; format: functional, organism-based
Candida albicans [12] = assay: Antifungal activity against Candida albicans ATCC 10231 assessed as microbial growth inhibition at 50 to 300 ug/mL after 48 hrs broth microdilution method; format: functional, organism-based
Candida albicans [13] = assay: Antifungal activity against Candida albicans ATCC 10231 assessed as microbial growth inhibition at => 125 ug/mL after 48 hrs broth microdilution method; format: functional
Cryptococcus neoformans [14] = assay: Antifungal activity against Cryptococcus neoformans ATCC 32264 assessed as microbial growth inhibition at => 125 ug/mL after 48 hrs broth microdilution method; format: functional
Candida albicans [15] = assay: Antifungal activity against Candida albicans ATCC 10231 assessed as microbial growth inhibition at 250 ug/mL after 48 hrs broth microdilution method; format: functional, organism-based
Cryptococcus neoformans [16] = assay: Antifungal activity against Cryptococcus neoformans ATCC 32264 assessed as microbial growth inhibition at 250 ug/mL after 48 hrs broth microdilution method; format: functional, organism-based

SMILES: C=C1[C@H]2C[C@H]2[C@]2(C)C=C3OC(=O)C(COC(C)=O)=C3C[C@@H]12
inhibition of growth at 125 µg/mL (Candida albicans [1]): 100%
growth inhibition (GI) (Cryptococcus neoformans [2]): Active
inhibition of growth at 62.5 µg/mL (Candida albicans [3]): 80%
inhibition of growth at 62.5 µg/mL (Cryptococcus neoformans [4]): 100%
inhibition of growth at 15.6 µg/mL (Cryptococcus neoformans [5]): 50%
growth inhibition (GI) (Candida albicans [6]): Active
inhibition of growth at 31.25 µg/mL (Cryptococcus neoformans [7]): 80%
inhibition of growth at 15.6 µg/mL (Candida albicans [8]): 50%

SMILES: C=C1[C@@H]2[C@H]3OC(=O)[C@@H](C)[C@@H]3CCC(=C)[C@@H]2C[C@@H]1O
growth inhibition (GI) (Cryptococcus neoformans [2]): Active
growth inhibition (GI) (Candida albicans [9]): Active
growth inhibition (GI) (Candida albicans [6]): Active
growth inhibition (GI) (Cryptococcus neoformans [10]): Active

MIC (Cryptococcus neoformans [10]; ATCC 32264, 48 h): 125 µg/mL (≈ 507 µM)
SMILES: C=C1[C@@H]2[C@H]3OC(=O)C(=C)[C@@H]3CCC(=C)[C@@H]2C[C@@H]1O [ZALUZANIN C]
growth inhibition (GI) (Candida albicans [9]): Active
growth inhibition (GI) (Candida albicans [6]): Active

SMILES: C=C1[C@H]2C[C@H]2[C@]2(C)C[C@@H]3OC(=O)C(CO)=C3C[C@@H]12
growth inhibition (GI) (Cryptococcus neoformans [11]): inactive
growth inhibition (GI) (Candida albicans [12]): inactive

SMILES: C=C1[C@H]2C[C@H]2[C@]2(C)C=C3OC(=O)C(CO)=C3C[C@@H]12
growth inhibition (GI) (Cryptococcus neoformans [2]): Active
growth inhibition (GI) (Candida albicans [6]): Active
growth inhibition (GI) (Candida albicans [13]): 50%
growth inhibition (GI) (Cryptococcus neoformans [14]): 50%

SMILES: C=C1[C@H]2C[C@H]2[C@]2(C)[C@@H]3O[C@@]34OC(=O)C(COC(C)=O)=C4C[C@@H]12
growth inhibition (GI) (Cryptococcus neoformans [2]): Active
growth inhibition (GI) (Candida albicans [15]): inactive
growth inhibition (GI) (Cryptococcus neoformans [16]): inactive
growth inhibition (GI) (Candida albicans [6]): Active
